Data on three substances can be found in patent US4087417A, “Hexapeptides and methods for their production” (Parke, Davis & Company, priority 1976, dated 1978).

This assay has as its system LRF (luteinizing hormone release factor) induced luteinizing hormone (LH) release. As to the kind of experiment: In vitro LRF antagonist test in rat anterior pituitary cell cultures. The class given is cell-based. From the text: Hexapeptides of this invention were screened for LRF antagonist activity in vitro using rat anterior pituitary cell cultures as described by Vale et. al. [Endocrinology, 91, 562 (1972)]. The inhibition of LRF (luteinizing hormone release factor) induced luteinizing hormone (LH) release into the culture medium is the endpoint of this in vitro bioassay.

The mark [1] stands for this setting: compound 1×10^-6 molar, run with LRF Control 2.5×10^-10 molar.
Setting [2] is: compound 1×10^-7 molar, run with LRF Control 3.5×10^-10 molar.
Setting [3] is: compound 2×10^-7 molar, run with LRF Control 3.5×10^-10 molar.
Setting [4] is: compound 3.5×10^-7 molar, run with LRF Control 3.5×10^-10 molar.
Setting [5] is: compound 6×10^-7 molar, run with LRF Control 3.5×10^-10 molar.
The mark [6] stands for this setting: compound 6×10^-8 molar, run with LRF Control 3.5×10^-10 molar.

For “N^α -t-Butoxycarbonyl-L-tryptophyl-N^im -benzyl-L-histidyl-O-benzyl-L-seryl-O-benzyl-L-tyrosyl-L-prolyl-D-alanine methyl ester”, under setting [1], the “% LH Release Inhibition” value worked out at 85% and the “LH Value” was found to be 11.04 ng/mL.

For “N^α -t-Butoxycarbonyl-L-tryptophyl-N^im -benzyl-L-histidyl-O-benzyl-L-seryl-O-benzyl-L-tyrosyl-L-prolyl-D-alanine N-ethylamide”, the “% LH Release Inhibition” value runs as follows: under setting [2], 49%; under setting [3], 93%; under setting [4], 104%; under setting [5], 106%; under setting [6], 11%. The “LH Value” turned out to be 27.52 ng/mL under setting [2]; 14.63 ng/mL under setting [3]; 11.46 ng/mL under setting [4]; 10.90 ng/mL under setting [5]; 38.53 ng/mL under setting [6].

For the substance “LRF Control: luteinizing hormone releasing factor, also referred to as luteinizing hormone releasing hormone, LH-RH; stimulates secretion of luteinizing hormone (QHWSYGLRPG; Gonadoliberin-1; UniProt P01148 24-33, looked up) [reference compound]”, the “LH Value” turned out to be 38.98 ng/mL (LRF alone 2.5×10^-10 molar (first run)) and 41.70 ng/mL (LRF alone 3.5×10^-10 molar (second run)).
